Experimental data published in patent publication USRE42890E1, “Furazanobenzimidazoles” (Basilea Pharmaceutica AG, priority 2003, dated 2011).

Key:
HeLa [1] = test: MTS proliferation assay, HeLa; assay type: cell-based, human; settings: 72 h incubation, read-out: MTS proliferation assay IC 50 HeLa
Method in brief: (§1)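 Cells seeded 24 h before treatment in RPMI-1640 with 5% or 10% FCS. Compounds added at 10, 3, 1 and 0.3 μM final and incubated 72 h at 37 °C, 7.5% CO2. MTS reagent then added for 3 h, absorbance read at 492 nm.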

Jurkat [2] = test: MTS proliferation assay, Jurkat; assay type: cell-based, human; settings: 72 h incubation, read-out: MTS proliferation assay IC 50 Jurkat
Method in brief: as §1

[3] = system: adherent cells or suspension cells; test: Hoechst 33342 nuclear staining (fraction of apoptotic nuclei); assay type: cell-based; parameters: key: 0 relating to no activity; 1 relating to weak activity comprising less than 70% of the cells; score 2 relating to strong activity comprising more than 70% of the cells
HT1080 = test: MTS proliferation assay, HT1080; assay type: cell-based, human; settings: HT1080, 72 h incubation; read-out: MTS proliferation assay IC 50 HT1080
Method in brief: as §1

Jurkat [4] = test: PI staining for cell cycle distribution, Jurkat; assay type: cell-based, human; parameters: key: 0: no effect; 1: weak effect; 2: strong effect; settings: Jurkat 3 μM, 24 h; for PI staining for cell cycle distribution, G2M: cell population arrested in G2M phase; for PI staining for cell cycle distribution, subG1: subG1 peak indicative for DNA fragmentation
Method: (§2) Cell lines are cultured in RPMI-1640 tissue culture medium containing either 5% or 10% fetal calf serum, 0.05 mM 2-mercaptoethanol, 2 mM glutamine and penicillin/streptomycin 50 μg/ml (complete medium) (Sigma, Buchs, Switzerland). General growth conditions are 37° C. and 7.5% CO2.
(§3) The following human cell lines (either EGFP transfected or not) are being used: HeLa (ATCC: CCL-2), KB (ATCC: CCL-17), MCF7 (ATCC: HTB-22), SK-BR-3 (ATCC: HTB-30), SK-Mel 1 (ATCC: HTB-67), SK-Mel 28 (ATCC: HTB-72), PC-3 (ATCC: CRL-1435), SW 480 (ATCC: CCL-228), NCl-H460 (ATCC: HTB-177), NCl-H1792 (ATCC: CRL-5895), HT1080 (ATCC: CCL-21), Jurkat (ATCC: TIB-152), Ramos (ATCC: CRL-1596), Raji (ATCC: CCL-86), H9 (ATCC: HTB-176), Hut78 (ATCC: TIB-161), K562 (ATCC: CCL 243), HL-60 (ATCC: CCL 240), U-87MG (ATCC: HTB-14), HepG2 (ATCC: HB-8065), U-2 OS (ATCC: HTB-96), Saos-2 (ATCC: HTB-85), U937 (ATCC: CRL 1593), Hs 578T (ATCC: HTB 126), HBL-100 (ATCC: HTB 124), Molt-4 (ATCC: CRL 1582).
(§4) 1-2*10^5 cells are seeded into 24 well tissue culture plates and incubated for 24 h prior to compound addition. Compounds are added for 24 h in a final concentration of 3 μM or 10 μM. Adherent cells are harvested by trypsinization. The cell suspensions are fixed by adding 2 parts ice cold ethanol 100% while vortexing. Then the samples are stored for >2 h at −20° C. Subsequently the cells are washed with PBS once and resuspended in 250 μl PBS containing 50 μg/ml PI (Calbiochem # 537059), then the samples are incubated at 37° C. for 30 minutes and subsequently analyzed on a FACSCalibur™ monitoring linear PI fluorescence activity on FL2. The readout allows the detection of a possible direct or indirect influence of the tested compounds on the cell cycle. The following events can occur: a) Generation of a subG1 peak indicative for DNA fragmentation, b) increase of the cell population arrested in G2M phase. Both events are scored by 1 for weak and 2 for strong occurrence. 0 indicates no occurrence at all.

Jily = test: MTS proliferation assay, Jily; assay type: cell-based; settings: 72 h incubation, read-out: MTS proliferation assay IC 50 Jily
Method in brief: (§5)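 Cells seeded 24 h before treatment in RPMI-1640 with 5% or 10% FCS, then exposed 72 h at 37 °C, 7.5% CO2, to compound at final 10, 3, 1 and 0.3 μM. Viability by MTS, 3 h further incubation, absorbance 492 nm.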

HeLa [5] = test: PI staining for cell cycle distribution, HeLa; assay type: cell-based, human; parameters: key: 0: no effect; 1: weak effect; 2: strong effect; settings: HeLa 10 μM, 24 h; for PI staining for cell cycle distribution, G2M: cell population arrested in G2M phase; for PI staining for cell cycle distribution, subG1: subG1 peak indicative for DNA fragmentation
Method: as §2, §3, §4

MRC5 = test: MTS proliferation assay, MRC5; assay type: cell-based; settings: MRC5, 72 h incubation; read-out: MTS proliferation assay IC 50 MRC5
Method in brief: as §5

IC50 (HeLa [1]) [nM] | IC50 (Jurkat [2]) [nM] | Compound | Hoechst 33342 nuclear staining score ([3]; H460, conc 0.01 μm) | Hoechst 33342 nuclear staining score ([3]; H460, conc 0.1 μm) | Hoechst 33342 nuclear staining score ([3]; H460, conc 1 μm) | Hoechst 33342 nuclear staining score ([3]; HeLa, conc 0.01 μm) | Hoechst 33342 nuclear staining score ([3]; HeLa, conc 0.1 μm) | Hoechst 33342 nuclear staining score ([3]; HeLa, conc 1 μm) | Hoechst 33342 nuclear staining score ([3]; Jily, conc 0.01 μm) | Hoechst 33342 nuclear staining score ([3]; Jily, conc 0.1 μm) | Hoechst 33342 nuclear staining score ([3]; Jily, conc 1 μm) | Hoechst 33342 nuclear staining score ([3]; Jurkat, conc 0.01 μm) | Hoechst 33342 nuclear staining score ([3]; Jurkat, conc 0.1 μm) | Hoechst 33342 nuclear staining score ([3]; Jurkat, conc 1 μm) | Hoechst 33342 nuclear staining score ([3]; MRC5, conc 0.01 μm) | Hoechst 33342 nuclear staining score ([3]; MRC5, conc 0.1 μm) | Hoechst 33342 nuclear staining score ([3]; MRC5, conc 1 μm) | Hoechst 33342 nuclear staining score ([3]; PBLs, conc 0.01 μm) | Hoechst 33342 nuclear staining score ([3]; PBLs, conc 0.1 μm) | Hoechst 33342 nuclear staining score ([3]; PBLs, conc 1 μm) | also measured
100 to 1000 | 100 to 1000 | Nc1nonc1-c1nc2ccccc2n1CC(=O)c1ccc(Cl)cc1 [Example 16] | 0 | 2 (score 2 relating to strong activity comprising more than 70% of the cells) | 2 (score 2 relating to strong activity comprising more than 70% of the cells) | 0 | 2 (score 2 relating to strong activity comprising more than 70% of the cells) | 2 (score 2 relating to strong activity comprising more than 70% of the cells) | 0 | 2 (score 2 relating to strong activity comprising more than 70% of the cells) | 2 (score 2 relating to strong activity comprising more than 70% of the cells) | 0 | 2 (score 2 relating to strong activity comprising more than 70% of the cells) | 2 (score 2 relating to strong activity comprising more than 70% of the cells) | 0 | 2 (score 2 relating to strong activity comprising more than 70% of the cells) | 2 (score 2 relating to strong activity comprising more than 70% of the cells) | 0 | 0 | 0 | IC50 (HT1080): 10 to 100 nM; PI staining for cell cycle distribution, G2M (Jurkat [4]): 0; PI staining for cell cycle distribution, subG1 (Jurkat [4]): 0; IC50 (Jily): 10 to 100 nM; PI staining for cell cycle distribution, G2M (HeLa [5]): 2; PI staining for cell cycle distribution, subG1 (HeLa [5]): 0; IC50 (MRC5): 10 to 100 nM
100 to 1000 | 10 to 100 | COc1ccc(C(=O)Cn2c(-c3nonc3N)nc3ccccc32)cc1 [Example 19] | 0 | 0 | 2 (score 2 relating to strong activity comprising more than 70% of the cells) | 0 | 1 (1 relating to weak activity comprising less than 70% of the cells) | 2 (score 2 relating to strong activity comprising more than 70% of the cells) | 0 | 2 (score 2 relating to strong activity comprising more than 70% of the cells) | 2 (score 2 relating to strong activity comprising more than 70% of the cells) | 0 | 2 (score 2 relating to strong activity comprising more than 70% of the cells) | 2 (score 2 relating to strong activity comprising more than 70% of the cells) | 0 | 0 | 2 (score 2 relating to strong activity comprising more than 70% of the cells) | 0 | 0 | 0 | PI staining for cell cycle distribution, G2M (Jurkat [4]): 0; PI staining for cell cycle distribution, subG1 (Jurkat [4]): 0; PI staining for cell cycle distribution, G2M (HeLa [5]): 2; PI staining for cell cycle distribution, subG1 (HeLa [5]): 0; IC50 (MRC5): 100 to 1000 nM
10 to 100 | 10 to 100 | Nc1nonc1-c1nc2ccccc2n1CC(=O)c1ccc(Br)cc1 [Example 29] | 0 | 0 | 2 (score 2 relating to strong activity comprising more than 70% of the cells) | 0 | 1 (1 relating to weak activity comprising less than 70% of the cells) | 2 (score 2 relating to strong activity comprising more than 70% of the cells) | 0 | 2 (score 2 relating to strong activity comprising more than 70% of the cells) | 2 (score 2 relating to strong activity comprising more than 70% of the cells) | 0 | 2 (score 2 relating to strong activity comprising more than 70% of the cells) | 2 (score 2 relating to strong activity comprising more than 70% of the cells) | 0 | 2 (score 2 relating to strong activity comprising more than 70% of the cells) | 2 (score 2 relating to strong activity comprising more than 70% of the cells) | 0 | 0 | 0 | PI staining for cell cycle distribution, G2M (Jurkat [4]): 0; PI staining for cell cycle distribution, subG1 (Jurkat [4]): 0; PI staining for cell cycle distribution, G2M (HeLa [5]): 2; PI staining for cell cycle distribution, subG1 (HeLa [5]): 0; IC50 (MRC5): 10 to 100 nM
